The numbers were not newly measured in patent US12059469B2, “Compositions and methods for wound treatment” (priority 2017, dated 2024), which cites them from elsewhere.

The structures appear in SMILES notation.

As usually defined, the aqueous solubility is the dissolved amount per volume that the medium holds.

One data set relates to mouse ear punch wound. Particulars: topical application, dissolved in DMSO.
Data set [1] relates to Wnt/β-catenin-mediated transcription. Particulars: through TNK 1 and 2 inhibition.

As for `Oc1nc(-c2ccc(C(F)(F)F)cc2)nc2c1CSCC2` [XAV939, 3,5,7,8-Tetrahydro-2-[4-(trifluoromethyl)phenyl]-4H-thiopyrano[4,3-d]pyrimidin-4-one], the aqueous solubility is less than 1000 µg/mL. In the data set on mouse ear punch wound, the “fibrosis (scarring)” value is on record as “reduced fibrosis” and the “rate of wound closure” value is listed as “significantly increased rate of wound closure”. In addition, the “effect on TGF-β” value in the data set on TGF-β is reported as “does not affect”. Also, the “effect on CRE” value in the data set on CRE is on record as “does not affect”. In data set [1], the Wnt/β-catenin-mediated transcription result was “selectively inhibits”. In addition, the “effect on NF-κK” value in the data set with NF-κK is given as “does not affect”.
